Data set [1] has as its system SK-MEL3 cancer cell line. As to the kind of experiment: DFO assay. It is filed as cell-based, human.
In data set [2] the test system is SK-MEL24 metastatic melanoma cancer cell line. Nature of the data set: MTT cell viability assay on SK-MEL24. As to conditions: read-out: IC50 ± SD SK-MEL24. The class given is cell-based, human. A general note: Tetrazolium dyes change colour on reduction, which living cells bring about.
Data set [3] deals with RPMI-7951 metastatic melanoma cancer cell line. As to the kind of experiment: MTT cell viability assay on RPMI-7951. It is filed as cell-based, human. As to conditions: read-out: IC50 ± SD RPMI-7951.
For data set [4], the system named is cervical cancer cell line (HeLa). As to the kind of experiment: MTT cell viability assay on HeLa. The class given is cell-based, human.
Data set [5] has as its system C3PV cell line. Nature of the data set: MTT cell viability assay on normal primary fibroblasts C3PV. As to conditions: for IC50: 24 h, read-out: IC50 ± SD C3PV. It is filed as cell-based, human.
For data set [6], the system named is SK-MEL24 cancer cell line. Nature of the data set: DFO assay. The class given is cell-based, human.
Data set [7] relates to SK-MEL3 metastatic melanoma cancer cell line. As to the kind of experiment: MTT cell viability assay on SK-MEL3. The class given is cell-based, human. As to conditions: read-out: IC50 ± SD SK-MEL3.
Data set [8] deals with RPMI-7951 cancer cell line. Nature of the data set: DFO assay. The class given is cell-based, human.
A short description of data set [9]: Stability in the cell culture medium by TLC and HPLC. The class given is physicochemical. As to conditions: 48 h, room temperature.
Setting [10] is: Homo sapiens, SK-MEL3, 24 h, read-out: IC50 ± SD SK-MEL3 without DFO.
[11] abbreviates: Homo sapiens, SK-MEL3, read-out: IC50 ± SD SK-MEL3 with DFO.
[12] abbreviates: Homo sapiens, read-out: IC50 ± SD HeLa.
[13] abbreviates: Homo sapiens, SK-MEL-24, 24 h, read-out: IC50 ± SD SK-MEL24 without DFO.
[14] abbreviates: Homo sapiens, SK-MEL-24, read-out: IC50 ± SD SK-MEL24 with DFO.
The mark [15] stands for this setting: Homo sapiens, RPMI-7951, 24 h, read-out: IC50 ± SD RPMI-7951 without DFO.
Setting [16] is: Homo sapiens, RPMI-7951, read-out: IC50 ± SD RPMI-7951 with DFO.
Setting [17] is: read-out: IC50 ± SD SK-MEL3 without DFO, without DFO, treatment time 24 hours.
[18] abbreviates: read-out: IC50 ± SD SK-MEL24 without DFO, without DFO, treatment time 24 hours.
[19] abbreviates: read-out: IC50 ± SD RPMI-7951 without DFO, without DFO, treatment time 24 hours.

Read-outs that look alike come from different tables or passages of the source. A value given as a limit tells only on which side of the number the result lay.

A word on the IC50: it is the concentration at which inhibition is half-maximal. As to `C[C@@H]1CC[C@H]2[C@@H](C)C(=O)O[C@@H]3O[C@@]4(C)CC[C@@H]1[C@]32OO4` [Compound 1, Artemisinin], the IC50 in data set [1] (setting [10]) was 3.43 ± 0.8 µM; in data set [1] (setting [11]), over 300 µM; in data set [2] (Homo sapiens, SK-MEL-24, 24 h) it was 8.66 ± 4.56 µM; in data set [3] (Homo sapiens, RPMI-7951, 24 h), 3.62 ± 0.99 µM; in data set [4] (setting [12]), 1.37 ± 0.59 µM; in [5] (Homo sapiens, C3PV), over 300 µM. In addition, the IC50 in data set [6] (setting [13]) came to 8.66 ± 0.9 µM; in [6] (setting [14]), 27.8 ± 3.4 µM; in data set [7] (Homo sapiens, SK-MEL3, 24 h) it was 3.43 ± 0.86 µM; in data set [8] (setting [15]), 3.62 ± 1.6 µM; in data set [8] (setting [16]), 29 ± 2.8 µM. In addition, the “cytotoxicity on normal cell line C3PV (in words)” value (shortened to “cytotoxicity”) in [5] (C3PV, MTT) is “not cytotoxic”.
As for `C[C@H]1[C@@H](O)O[C@@H]2O[C@@]3(C)CC[C@H]4[C@H](C)CC[C@@H]1[C@@]24OO3` [Compound 2, dihydroartemisinin], the IC50 amounted to 3.23 ± 1.6 µM in data set [2] (Homo sapiens, SK-MEL-24, 24 h); 0.91 ± 0.45 µM in [3] (Homo sapiens, RPMI-7951, 24 h); 1.32 ± 0.26 µM in [4] (setting [12]); 0.68 ± 0.19 µM in data set [5] (Homo sapiens, C3PV); 10.4 ± 0.61 µM in data set [7] (Homo sapiens, SK-MEL3, 24 h).
Regarding `C[C@H]1[C@H](OC(=O)CCC(=O)O)O[C@@H]2O[C@@]3(C)CC[C@H]4[C@H](C)CC[C@@H]1[C@@]24OO3` [Compound 3, artesunate], the IC50 in data set [1] (setting [10]) is over 300 µM; in data set [1] (setting [11]) it was over 300 µM; in data set [2] (Homo sapiens, SK-MEL-24, 24 h), 0.82 ± 0.37 µM; in data set [3] (Homo sapiens, RPMI-7951, 24 h), 1.08 ± 0.56 µM; in data set [4] (setting [12]), 1.76 ± 0.38 µM; in data set [5] (Homo sapiens, C3PV), 1.68 ± 0.44 µM. Also, the IC50 is 0.82 ± 0.05 µM in data set [6] (setting [13]); 0.9 ± 0.02 µM in [6] (setting [14]); over 300 µM in data set [7] (Homo sapiens, SK-MEL3, 24 h); 1.08 ± 0.6 µM in [8] (setting [15]); 1.09 ± 0.9 µM in data set [8] (setting [16]).
As to `COc1cc(/C=C/C(=O)CC(=O)/C=C/c2ccc(O)c(OC)c2)ccc1O` [Compound 5, curcumin], the IC50 was 3 ± 1.35 µM in data set [2] (Homo sapiens, SK-MEL-24, 24 h); 3.95 ± 0.09 µM in data set [3] (Homo sapiens, RPMI-7951, 24 h); 2.12 ± 0.94 µM in [4] (setting [12]); over 300 µM in [5] (Homo sapiens, C3PV); 1.69 ± 1.24 µM in data set [7] (Homo sapiens, SK-MEL3, 24 h).
On to `C=CCc1ccc(O)c(OC)c1` [Compound 6, eugenol], for which the IC50 in data set [2] (Homo sapiens, SK-MEL-24, 24 h) worked out at 2.61 ± 0.34 µM; in data set [3] (Homo sapiens, RPMI-7951, 24 h), 0.84 ± 0.34 µM; in data set [4] (setting [12]), 4.68 ± 1.64 µM; in [5] (Homo sapiens, C3PV), 6.88 ± 0.085 µM; in [7] (Homo sapiens, SK-MEL3, 24 h) it was 1.16 ± 0.32 µM.
On to `C=C(C)[C@@H]1CC=C(CO)CC1` [Compound 7, perillyl alcohol], for which the IC50 was determined as 2.69 ± 1.3 µM in data set [2] (Homo sapiens, SK-MEL-24, 24 h); 1.71 ± 0.52 µM in data set [3] (Homo sapiens, RPMI-7951, 24 h); 1.63 ± 0.4 µM in [4] (setting [12]); 3.8 ± 0.28 µM in data set [5] (Homo sapiens, C3PV); 1.37 ± 0.59 µM in [7] (Homo sapiens, SK-MEL3, 24 h).
Regarding `OCCc1ccc(O)cc1` [Compound 8, tyrosol], the IC50 worked out at 1.69 ± 0.15 µM in data set [2] (Homo sapiens, SK-MEL-24, 24 h); 10.8 ± 1.4 µM in data set [3] (Homo sapiens, RPMI-7951, 24 h); 1.41 ± 0.79 µM in [4] (setting [12]); 22.7 ± 1.83 µM in data set [5] (Homo sapiens, C3PV); 2.53 ± 1.41 µM in data set [7] (Homo sapiens, SK-MEL3, 24 h).
As for `Cc1c(C)c2c(c(C)c1O)CC[C@@](C)(CCC[C@H](C)CCC[C@H](C)CCCC(C)C)O2` [Compound 9, α-tocopherol], the IC50 in [2] (Homo sapiens, SK-MEL-24, 24 h) is 2.35 ± 1.05 µM; in data set [3] (Homo sapiens, RPMI-7951, 24 h) it was 4.11 ± 2.1 µM; in data set [4] (setting [12]), 3.03 ± 1.5 µM; in data set [5] (Homo sapiens, C3PV), 74.1 ± 5.09 µM; in data set [7] (Homo sapiens, SK-MEL3, 24 h) it was 1.22 ± 0.64 µM.
With `C=CCc1ccc(OC(=O)CCC(=O)OC2OC3OC4(C)CCC5C(C)CCC(C2C)C35OO4)c(OC)c1` (stereo not drawn) [Compound 11ii], the IC50 in data set [2] (SK-MEL24, MTT, 24 h) stood at 5.44 ± 2.4 µM; in [3] (RPMI-7951, MTT, 24 h) it was 1.21 ± 0.63 µM; in data set [4] (read-out: IC50 ± SD HeLa, MTT), 1.44 ± 1.09 µM; in data set [5] (normal human primary fibroblast cell line, MTT) it was 6.79 ± 0.15 µM; in [7] (SK-MEL3, MTT, 24 h) it was 4.65 ± 1.8 µM.
In the case of `C=C(C)C1CC=C(COC(=O)CCC(=O)OC2OC3OC4(C)CCC5C(C)CCC(C2C)C35OO4)CC1` (stereo not drawn) [Compound 11iii], the IC50 in data set [1] (setting [17]) was found to be 5.24 ± 0.2 µM; in data set [2] (SK-MEL24, MTT, 24 h) it was 0.06 ± 0.1 µM; in data set [3] (RPMI-7951, MTT, 24 h), 2.35 ± 1.52 µM; in [4] (read-out: IC50 ± SD HeLa, MTT) it was 1.76 ± 0.47 µM; in [6] (setting [18]) it was 0.06 ± 0.01 µM; in data set [7] (SK-MEL3, MTT, 24 h), 5.24 ± 2.29 µM. For the same molecule, the IC50 in data set [8] (setting [19]) was found to be 2.35 ± 0.9 µM. For the same molecule, the “cytotoxicity” value in data set [5] (C3PV, MTT) is given as “not cytotoxic”.
Consider `C[C@H]1[C@H](OC(=O)CCC(=O)Oc2ccc(CCO)cc2)O[C@@H]2O[C@@]3(C)CC[C@H]4[C@H](C)CC[C@@H]1[C@@]24OO3` [Compound 11iv], for which the IC50 is 2.33 ± 0.09 µM in data set [1] (setting [17]); 2.32 ± 1.19 µM in [2] (SK-MEL24, MTT, 24 h); 8.34 ± 3.06 µM in data set [3] (RPMI-7951, MTT, 24 h); over 300 µM in data set [4] (read-out: IC50 ± SD HeLa, MTT); 2.32 ± 0.9 µM in data set [6] (setting [18]); 2.33 ± 1.18 µM in data set [7] (SK-MEL3, MTT, 24 h). Also, the IC50 in data set [8] (setting [19]) was determined as 8.34 ± 2.7 µM. In data set [4] (MTT), the “activity against HeLa (in words)” value is “inactive”. For the same molecule, the “stability in the cell culture medium (ester bond; release of tyrosol)” value in data set [9] was “No traces of tyrosol were observed”. Further, in data set [5] (C3PV, MTT), the “cytotoxicity” value is “not cytotoxic”.
Regarding `CC(=O)O[C@H]1C(=O)[C@@]2(C)[C@H]([C@H](OC(=O)c3ccccc3)[C@]3(O)C[C@H](OC(=O)[C@H](O)[C@@H](NC(=O)c4ccccc4)c4ccccc4)C(C)=C1C3(C)C)[C@]1(OC(C)=O)CO[C@@H]1C[C@@H]2O` [paclitaxel], the IC50 in data set [2] (Homo sapiens, SK-MEL-24, 24 h) is 1.04 ± 0.31 µM; in data set [3] (Homo sapiens, RPMI-7951, 24 h) it was 0.013 µM; in data set [4] (setting [12]), 0.006 ± 0.0014 µM; in data set [5] (Homo sapiens, C3PV), 78.9 ± 0.79 µM; in data set [7] (Homo sapiens, SK-MEL3, 24 h) it was 4.73 ± 0.83 µM.

For the origin of these results see article PMC6964273 (ACS Omega, 2019).
